One data set relates to BALB/C mice. Nature of the data set: In vivo imaging of Fluc-mRNA LNP expression in mice. The method, then: The LNP preparation containing 5 μg of cap analog-transcribed Fluc-mRNA was intramuscularly injected into female BALB/C mice aged 4 to 6 weeks and weighing 17 to 19 g. At specific time points after administration (6 hours, 12 hours, 24 hours, 48 hours, 96 hours, and 168 hours), the mice were intraperitoneally injected with fluorescence imaging substrate. The mice were then allowed to move freely for 5 minutes, followed by detection of the total radiation intensity of the protein expressed by LNP-carrying mRNA in the mice using an IVIS Spectrum small-animal in vivo imaging system (corresponding to the amount of protein expression).
In the in vivo imaging experiments in mice, the multiple of the total radiation intensity for each group of mice relative to the m6A group is shown in Table 8 (where the total radiation intensity is represented as the given value×10^8 p/s).

Data set [1] can be described thus: Characterization of lipid nanoparticles encapsulating Fluc-mRNA prepared from different cap structures. The class given is physicochemical. The settings on record: for Particle size: LNP (YK-009/DSPC/cholesterol/DMG-PEG2000) with Fluc-mRNA transcribed using the named cap analog; for PDI: LNP with Fluc-mRNA transcribed using the named cap analog; for EE: encapsulation efficiency of LNP with Fluc-mRNA transcribed using the named cap analog. An outline of the steps:
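LNPs of YK-009/DSPC/cholesterol/DMG-PEG2000 (49:10:39.5:1.5) made by microfluidic mixing with Fluc-mRNA in 50 mM citrate pH 4, lipid:mRNA ~15:1 w/w, then ultrafiltered into PBS and 0.2 μm filtered. Size and PDI by DLS (90°, 25 °C, triplicate); encapsulation efficiency by RiboGreen assay.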

[2] abbreviates: 6 h, 5 μg Fluc-mRNA LNP intramuscular, mice.
Where [3] appears, read: 12 h, 5 μg Fluc-mRNA LNP intramuscular, mice.
The mark [4] stands for this setting: 24 h, 5 μg Fluc-mRNA LNP intramuscular, mice.
The mark [5] stands for this setting: 48 h, 5 μg Fluc-mRNA LNP intramuscular, mice.
Setting [6] is: 96 h, 5 μg Fluc-mRNA LNP intramuscular, mice.
[7] abbreviates: 168 h, 5 μg Fluc-mRNA LNP intramuscular, mice.

The structures appear in SMILES notation.

With `CCN(CC)C(=O)[C@H]1[C@@H](O)[C@H]([n+]2cn(C)c3c(=O)[nH]c(N)nc32)O[C@@H]1COP(=O)(O)OP(=O)(O)OP(=O)(O)OC[C@H]1O[C@@H](n2cnc3c(N)ncnc32)[C@H](OC)[C@@H]1OP(=O)(O)OC[C@H]1O[C@@H](n2cnc3c(=O)[nH]c(N)nc32)[C@H](O)[C@@H]1O` [YK-CAP-111], the “Multiple of total radiation intensity relative to m6A” value in the data set on BALB/C mice (6 h) is reported as 3.7; in the data set with BALB/C mice (12 h) it was 4.4; in the data set on BALB/C mice (24 h) it was 4.2; in the data set with BALB/C mice (48 h) it was 3.8; in the data set with BALB/C mice (96 h) it was 1.1. For the same compound, the Total radiation intensity in the data set on BALB/C mice (setting [2]) was 8.61 ×108 p/s; in the data set on BALB/C mice (setting [3]) it was 9.34 ×108 p/s; with BALB/C mice (setting [4]) it was 2.75 ×108 p/s; in the data set with BALB/C mice (setting [5]) it was 1.95 ×108 p/s; in the data set on BALB/C mice (setting [6]), 0.27 ×108 p/s; with BALB/C mice (setting [7]), 0.03 ×108 p/s. Moreover, the Total radiation intensity in the data set with BALB/C mice (at 12 hours) was 9.34 ×10^8 p/s; in the data set with BALB/C mice (at 48 hours), 1.95 ×10^8 p/s. For the same compound, the “Total radiation intensity, times that of N-7113” value in the data set with BALB/C mice (at 12 hours) came to 2.2 times; in the data set on BALB/C mice (at 48 hours) it was 4.0 times. The “Total radiation intensity, times that of YK-CAP-101” value with BALB/C mice (at 12 hours) is on record as 9.7 times; in the data set with BALB/C mice (at 48 hours) it was 10.3 times. Also, in data set [1], the Particle size turned out to be 78.33 nm. The compound further returned a PDI in data set [1] of 0.053. The compound also gave an EE in data set [1] of 95.1%.

As to `COC[C@@H]1[C@H](OP(=O)(O)OC[C@H]2O[C@@H](n3cnc4c(=O)[nH]c(N)nc43)[C@H](O)[C@@H]2O)[C@@H](COP(=O)(O)OP(=O)(O)OP(=O)(O)OC[C@H]2O[C@@H]([n+]3cn(C)c4c(=O)[nH]c(N)nc43)[C@H](O)[C@@H]2O)O[C@H]1n1cnc2c(N)ncnc21` [YK-CAP-113], the “Multiple of total radiation intensity relative to m6A” value was determined as 2.6 in the data set on BALB/C mice (6 h); 3.6 with BALB/C mice (12 h); 3.1 in the data set on BALB/C mice (24 h); 2.5 with BALB/C mice (48 h); 1.2 with BALB/C mice (96 h). For the same compound, the Total radiation intensity is 6.07 ×108 p/s in the data set with BALB/C mice (setting [2]); 7.63 ×108 p/s in the data set with BALB/C mice (setting [3]); 2.02 ×108 p/s in the data set with BALB/C mice (setting [4]); 1.29 ×108 p/s with BALB/C mice (setting [5]); 0.31 ×108 p/s with BALB/C mice (setting [6]); 0.04 ×108 p/s with BALB/C mice (setting [7]). The same compound registered a Particle size in data set [1] of 79.34 nm. In data set [1], this compound showed a PDI of 0.043. The compound further displayed an EE in data set [1] of 96.1%.

`COC[C@]1(COP(=O)(O)OP(=O)(O)OP(=O)(O)OC[C@H]2O[C@@H](n3cnc4c(N)ncnc43)[C@H](OC)[C@@H]2OP(=O)(O)OC[C@H]2O[C@@H](n3cnc4c(=O)[nH]c(N)nc43)[C@H](O)[C@@H]2O)O[C@@H]([n+]2cn(C)c3c(=O)[nH]c(N)nc32)[C@H](O)[C@@H]1O` [YK-CAP-117]: the “Multiple of total radiation intensity relative to m6A” value was 3.8 in the data set with BALB/C mice (6 h); 3.8 with BALB/C mice (12 h); 3.2 in the data set with BALB/C mice (24 h); 3.3 in the data set with BALB/C mice (48 h); 0.9 with BALB/C mice (96 h). The Total radiation intensity in the data set on BALB/C mice (setting [2]) is listed as 8.99 ×108 p/s; in the data set on BALB/C mice (setting [3]), 8.00 ×108 p/s; in the data set with BALB/C mice (setting [4]), 2.08 ×108 p/s; in the data set with BALB/C mice (setting [5]) it was 1.73 ×108 p/s; in the data set with BALB/C mice (setting [6]), 0.35 ×108 p/s; in the data set on BALB/C mice (setting [7]), 0.02 ×108 p/s. This compound had a Particle size in data set [1] of 72.56 nm. Besides, the PDI in data set [1] worked out at 0.044. Further, the EE in data set [1] is on record as 94.3%.

With `CO[C@@H]1[C@H](OP(=O)(O)OC[C@H]2O[C@@H](n3cnc4c(=O)[nH]c(N)nc43)[C@H](O)[C@@H]2O)[C@@H](COP(=O)(O)OP(=O)(O)OP(=O)(O)OC[C@@]2(CF)O[C@@H]([n+]3cn(C)c4c(=O)[nH]c(N)nc43)[C@H](O)[C@@H]2O)O[C@H]1n1cnc2c(N)ncnc21` [YK-CAP-118], the “Multiple of total radiation intensity relative to m6A” value in the data set on BALB/C mice (6 h) is recorded as 3.0; in the data set with BALB/C mice (12 h), 3.0; in the data set with BALB/C mice (24 h) it was 3.1; with BALB/C mice (48 h) it was 2.6; in the data set on BALB/C mice (96 h), 1.2. In addition, the Total radiation intensity is 7.06 ×108 p/s in the data set with BALB/C mice (setting [2]); 6.28 ×108 p/s in the data set with BALB/C mice (setting [3]); 2.03 ×108 p/s with BALB/C mice (setting [4]); 1.33 ×108 p/s in the data set on BALB/C mice (setting [5]); 0.35 ×108 p/s in the data set with BALB/C mice (setting [6]); 0.02 ×108 p/s in the data set with BALB/C mice (setting [7]). In data set [1], the Particle size came to 75.84 nm. In addition, in data set [1], the PDI worked out at 0.055. Further, the EE in data set [1] was 97.2%.

Turning to `CO[C@@H]1[C@H](OP(=O)(O)OC[C@H]2O[C@@H](n3cnc4c(=O)[nH]c(N)nc43)[C@H](O)[C@@H]2O)[C@@H](COP(=O)(O)OP(=O)(O)OP(=O)(O)OC[C@@]2(C(F)F)O[C@@H]([n+]3cn(C)c4c(=O)[nH]c(N)nc43)[C@H](O)[C@@H]2O)O[C@H]1n1cnc2c(N)ncnc21` [YK-CAP-119], the “Multiple of total radiation intensity relative to m6A” value in the data set with BALB/C mice (6 h) is reported as 3.2; in the data set on BALB/C mice (12 h), 3.1; in the data set on BALB/C mice (24 h), 3.3; in the data set on BALB/C mice (48 h), 2.4; in the data set with BALB/C mice (96 h), 1.3. Also, the Total radiation intensity in the data set on BALB/C mice (setting [2]) is listed as 7.47 ×108 p/s; in the data set with BALB/C mice (setting [3]), 6.65 ×108 p/s; with BALB/C mice (setting [4]), 2.15 ×108 p/s; in the data set on BALB/C mice (setting [5]), 1.26 ×108 p/s; in the data set on BALB/C mice (setting [6]), 0.25 ×108 p/s; in the data set with BALB/C mice (setting [7]) it was 0.02 ×108 p/s. In data set [1], the Particle size worked out at 82.45 nm. In data set [1], this compound displayed a PDI of 0.057. For the same compound, the EE in data set [1] is recorded as 94.6%.

In the case of `CO[C@@H]1[C@H](OP(=O)(O)OC[C@H]2O[C@@H](n3cnc4c(=O)[nH]c(N)nc43)[C@H](O)[C@@H]2O)[C@@H](COP(=O)(O)OP(=O)(O)OP(=O)(O)OC[C@@]2(OC)O[C@@H]([n+]3cn(C)c4c(=O)[nH]c(N)nc43)[C@H](O)[C@@H]2O)O[C@H]1n1cnc2c(N)ncnc21` [compound 5227, reference compound], the “Multiple of total radiation intensity relative to m6A” value in the data set with BALB/C mice (6 h) was 1.0; with BALB/C mice (12 h), 0.7; in the data set on BALB/C mice (24 h), 0.8; with BALB/C mice (48 h), 0.9; in the data set with BALB/C mice (96 h) it was 0.9. Further, the Total radiation intensity in the data set on BALB/C mice (setting [2]) is 2.38 ×108 p/s; in the data set with BALB/C mice (setting [3]) it was 1.45 ×108 p/s; in the data set with BALB/C mice (setting [4]), 0.53 ×108 p/s; in the data set on BALB/C mice (setting [5]), 0.48 ×108 p/s; with BALB/C mice (setting [6]) it was 0.07 ×108 p/s; in the data set on BALB/C mice (setting [7]), 0.02 ×108 p/s. This compound displayed a Particle size in data set [1] of 83.34 nm. Moreover, the PDI in data set [1] turned out to be 0.028. This compound also came in with an EE in data set [1] of 94.9%.

Source of the values: patent publication US12576099B2, “Ribose-modified cap analog and use thereof” (Beijing Youcare Kechuang Pharmaceutical Technology Co., Ltd., priority 2024, dated 2026).
